The values that follow come from patent US20100311714A1, “1H-IMIDAZO[4,5-c]QUINOLINONE COMPOUNDS” (priority 2009, published 2010).

Assay [1] has as its system S6 Ribosomal Protein phosphorylation Ser235/236 in TSC1 null mouse embryo fibroblast (MEF) cells. Kind of assay: Reverse protein array, S6 Ribosomal Protein phosphorylation in TSC1 null MEF cells. The class given is cell-based. The note with it: 1 h, TSC1-/- MEFs, 60 minutes. In a few lines:
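Phospho-S6 (Ser235/236) was quantified by reverse protein array of cell lysates with a phospho-specific primary antibody. […]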

The subject of assay [2] is PKB Ser473 phosphorylation in Rat1-myr-HA-p110 beta cells. Kind of assay: Reverse protein array, PKB Ser473 phosphorylation in Rat1-myr-HA-p110 beta cells. The class given is cell-based. The note with it: Rattus norvegicus, 0.5 h, 30 minutes compound incubation, read-out: p-PKB/IC50_beta.

Like-named read-outs stand apart in the source and are kept apart here. A value given as a limit tells only on which side of the number the result lay.

With `COc1nc(N2CCNCC2)ccc1-n1c(=O)n(C)c2cnc3ccc(-c4cnc(N)c(C(F)(F)F)c4)cc3c21` [Example 9.2, 8-(6-Amino-5-trifluoromethyl-pyridin-3-yl)-1-(2-methoxy-6-piperazin-1-yl-pyridin-3-yl)-3-methyl-1,3-dihydro-imidazo[4,5-c]quinolin-2-one], the figures for the IC50 in assay [1] (read-out: p-S6) and in assay [2] were 3.35 nM and 20.6 nM, respectively.
As to `CCOc1cc(-c2ccc3ncc4c(c3c2)n(-c2ccc(OCCOC)nc2C)c(=O)n4C)cnc1COC` [Example 22.1, 8-(5-Ethoxy-6-methoxymethyl-pyridin-3-yl)-1-[6-(2-methoxy-ethoxy)-2-methyl-pyridin-3-yl]-3-methyl-1,3-dihydro-imidazo[4,5-c]quinolin-2-one], the IC50 was determined as 7 nM in assay [1] (read-out: p-S6 IC50) and 66.7 nM in assay [2].
For `Cc1nc(N2CCC2)ccc1-n1c(=O)n(C)c2cnc3ccc(-c4cncc(N5CCC5)c4)cc3c21` [Example 23.1, 1-(6-Azetidin-1-yl-2-methyl-pyridin-3-yl)-8-(5-azetidin-1-yl-pyridin-3-yl)-3-methyl-1,3-dihydro-imidazo[4,5-c]quinolin-2-one] the same measures were 2 nM and 15.1 nM.
Consider `CCNc1cc(-c2ccc3ncc4c(c3c2)n(-c2ccc(N3CCC3)nc2C)c(=O)n4C)cnc1CO` [Example 23.8, 1-(6-Azetidin-1-yl-2-methyl-pyridin-3-yl)-8-(5-ethylamino-6-hydroxymethyl-pyridin-3-yl)-3-methyl-1,3-dihydro-imidazo[4,5-c]quinolin-2-one], for which the IC50 in assay [1] (read-out: p-S6 IC50) is 6 nM; in assay [2], < 4.57 nM.
As for `CNc1ncc(-c2ccc3ncc4c(c3c2)n(-c2ccc(N3CC(F)(F)C3)nc2C)c(=O)n4C)cn1` [Example 24.1, 1-[6-(3,3-Difluoro-azetidin-1-yl)-2-methyl-pyridin-3-yl]-3-methyl-8-(2-methylamino-pyrimidin-5-yl)-1,3-dihydro-imidazo[4,5-c]quinolin-2-one], the values for the IC50 in assay [1] (read-out: p-S6 IC50) and in assay [2] were 2 nM and 12.7 nM, respectively.
As for `CCOc1cc(-c2ccc3ncc4c(c3c2)n(-c2ccc(N3CCCC3)nc2C)c(=O)n4C)cnc1COC` [Example 25.2, 8-(5-Ethoxy-6-methoxymethyl-pyridin-3-yl)-3-methyl-1-(2-methyl-6-pyrrolidin-1-yl-pyridin-3-yl)-1,3-dihydro-imidazo[4,5-c]quinolin-2-one], the IC50 is 2 nM in assay [1] (read-out: p-S6 IC50) and 39.9 nM in assay [2].
For `Cc1nc(N2CCCC2)ccc1-n1c(=O)n(C)c2cnc3ccc(-c4cncc(C(C)(C)O)c4)cc3c21` [Example 25.3, 8-[5-(1-Hydroxy-1-methyl-ethyl)-pyridin-3-yl]-3-methyl-1-(2-methyl-6-pyrrolidin-1-yl-pyridin-3-yl)-1,3-dihydro-imidazo[4,5-c]quinolin-2-one] the same measures were < 0.457 nM and 30.6 nM.
On to `Cc1nc(N(C)CCO)ccc1-n1c(=O)n(C)c2cnc3ccc(-c4cnc(N)c(C(F)(F)F)c4)cc3c21` [Example 26.1, 8-(6-Amino-5-trifluoromethyl-pyridin-3-yl)-1-{6-[(2-hydroxy-ethyl)-methyl-amino]-2-methyl-pyridin-3-yl}-3-methyl-1,3-dihydro-imidazo[4,5-c]quinolin-2-one], for which the IC50 in assay [1] (read-out: p-S6 IC50) is < 0.457 nM; in assay [2], < 4.57 nM.
For `CNc1ncc(-c2ccc3ncc4c(c3c2)n(-c2ccc(N(C)CCO)nc2C)c(=O)n4C)cn1` [Example 26.2, 1-{6-[(2-Hydroxy-ethyl)-methyl-amino]-2-methyl-pyridin-3-yl}-3-methyl-8-(2-methylamino-pyrimidin-5-yl)-1,3-dihydro-imidazo[4,5-c]quinolin-2-one] the same measures were < 0.457 nM and < 4.57 nM.
Consider `CNc1ncc(-c2ccc3ncc4c(c3c2)n(-c2ccc(N3CCC(O)C3)nc2C)c(=O)n4C)cn1` (centres unmarked) [Example 27.2, 1-[6-(3-Hydroxy-pyrrolidin-1-yl)-2-methyl-pyridin-3-yl]-3-methyl-8-(2-methylamino-pyrimidin-5-yl)-1,3-dihydro-imidazo[4,5-c]quinolin-2-one], for which the IC50 in assay [1] (read-out: p-S6 IC50) amounted to 2 nM; in assay [2], 11.3 nM.
